Results taken from patent US10865216B2, “Tricyclic Gyrase inhibitors” (MERCK SHARP & DOHME CORP., priority 2012, dated 2020).
Values after ≈ are worked out from the molar mass of the structure shown.

The compounds below were run on S. aureus ATCC 13709 (assay: MIC, S. aureus ATCC 13709). Conditions: S. aureus; Alamar Blue read after overnight incubation at 35° C.
Assay type: cell-based

Structure (SMILES)	MIC Sa [µg/mL]
CNc1cc(F)cc2c1[nH]c1nc(Oc3cnc(C)nc3)nc(N3CCNCC3)c12 [Compound 4.163]	≤0.5
CNc1cc(C)cc2c1[nH]c1nc(Oc3cncnc3)nc(N3CC4C(N)C4C3)c12 (stereo not drawn) [Compound 6.27]	≤0.5
CNc1cc(F)cc2c1[nH]c1nc(Oc3cnc(N4CCOCC4)nc3)nc(N3CCC4(CC4N)C3)c12 (stereo not drawn) [Compound 4.214]	≤0.5
CNc1cc(F)cc2c1[nH]c1nc(Oc3cnc(C4CC4)nc3)nc(N3CC4C(N)C4C3)c12 (stereo not drawn) [Compound 4.241]	≤0.5
CNc1cc(F)cc2c1[nH]c1nc(Oc3cnc4[nH]cnc4c3)nc(N3CC4CC(N)C4C3)c12 (stereo not drawn) [Compound 4.310]	8 (≈ 17.4 µM)
COc1cccc2c1[nH]c1nc(Oc3cnc4cccnc4c3)nc(N3CC4C(N)C4C3)c12 (stereo not drawn) [Compound 2.14]	1 (≈ 2.28 µM)
CNc1cc(F)cc2c1[nH]c1nc(Oc3cncnc3)nc(N3C4CCC3CC(N)C4)c12 (stereo not drawn) [Compound 4.025]	≤0.5
CNc1cc(F)cc2c1[nH]c1nc(Oc3cnc(C4CC4)nc3)nc(N3CC4(CCC4N)C3)c12 (stereo not drawn) [Compound 4.244]	≤0.5
CNc1cc(F)cc2c1[nH]c1nc(Oc3cnc(SC)nc3)nc(N3CCC(N)C3)c12 (stereo not drawn) [Compound 4.199]	≤0.5
CNc1cc(F)cc2c1[nH]c1nc(Oc3cnc4cccnc4c3)nc(N3CC4C(N)C4C3)c12 (stereo not drawn) [Compound 4.037]	≤0.5
CNc1cc(F)cc2c1[nH]c1nc(Oc3cncc(F)c3)nc(N3CC4C(N)C4C3)c12 (stereo not drawn) [Compound 4.055]	≤0.5
CNc1cc(F)cc2c1[nH]c1nc(Oc3cncc(-c4cncnc4)c3)nc(N3CC4C(N)C4C3)c12 (stereo not drawn) [Compound 4.205]	≤0.5
CNc1cc(F)cc2c1[nH]c1nc(Oc3cnc(C)nc3)nc(N3CCC(F)(CN)CC3)c12 [Compound 4.159]	≤0.5
CNc1cc(F)cc2c1[nH]c1nc(Oc3cncc(Cl)c3)nc(N3CC(N)C3)c12 [Compound 4.277]	≤0.5
CNc1cc(F)cc2c1[nH]c1nc(Oc3ccc4ncsc4c3)nc(N3CC4CCC(N)C4C3)c12 (stereo not drawn) [Compound 4.320]	≤0.5
CNc1cc(F)cc2c1[nH]c1nc(Oc3ccc4c(c3)C(=O)NC4)nc(N3CC4(CCC4N)C3)c12 (stereo not drawn) [Compound 4.270]	≤0.5
CNc1cc(F)cc2c1[nH]c1nc(Oc3cnc(C)nc3)nc(N3CC4C(CN)C4C3)c12 (stereo not drawn) [Compound 4.106]	≤0.5
CNc1cc(F)cc2c1[nH]c1nc(Oc3cncnc3)nc(N3CCCC(C)(N)C3)c12 (stereo not drawn) [Compound 4.024]	≤0.5
CNc1cc(F)cc2c1[nH]c1nc(Oc3cncnc3)nc(N3CCC4(CCNC4)C3)c12 (stereo not drawn) [Compound 4.033]	≤0.5
CNc1cc(F)cc2c1[nH]c1nc(Oc3cnc(N)nc3)nc(N3CCC(CN)C3)c12 (stereo not drawn) [Compound 4.176]	≤0.5
CNc1cc(F)cc2c1[nH]c1nc(Oc3cncc(-c4nnnn4C)c3)nc(N3CCC(N)C3)c12 (stereo not drawn) [Compound 4.169]	2 (≈ 4.21 µM)
CNc1cc(F)cc2c1[nH]c1nc(Oc3cncnc3)nc(N3CC4C(N)C4C3)c12 (stereo not drawn) [Compound 4.001]	≤0.5
CNc1cc(F)cc2c1[nH]c1nc(Oc3cnc(N(C)C)nc3)nc(N3CC(N)C4(CC4)C3)c12 (stereo not drawn) [Compound 4.209]	≤0.5
CNc1cc(F)cc2c1[nH]c1nc(Oc3cnc(N)nc3)nc(N3CCCC(N)C3)c12 (stereo not drawn) [Compound 4.180]	1 (≈ 2.36 µM)
CNc1cc(F)cc2c1[nH]c1nc(Oc3cncc(-c4nnnn4C)c3)nc(N3CC4C(N)C4C3)c12 (stereo not drawn) [Compound 4.168]	≤0.5
CNc1cc(F)cc2c1[nH]c1nc(Oc3cncnc3)ncc12 [Compound 4.031]	2 (≈ 6.45 µM)
CCc1ncc(Oc2nc(N3CCC4(CC4N)C3)c3c(n2)[nH]c2c(NC)cc(F)cc23)cn1 (stereo not drawn) [Compound 4.263]	≤0.5

Each compound was assayed on E. coli ATCC 25922 (assay: MIC, E. coli ATCC 25922). Conditions: E. coli; Alamar Blue read after overnight incubation at 35° C.
Assay type: cell-based

Structure (SMILES)	MIC Ec [µg/mL]
CNc1cc(F)cc2c1[nH]c1nc(Oc3cnc(C)nc3)nc(N3CCNCC3)c12 [Compound 4.163]	≤0.5
CNc1cc(C)cc2c1[nH]c1nc(Oc3cncnc3)nc(N3CC4C(N)C4C3)c12 (stereo not drawn) [Compound 6.27]	1 (≈ 2.48 µM)
CNc1cc(F)cc2c1[nH]c1nc(Oc3cnc(N4CCOCC4)nc3)nc(N3CCC4(CC4N)C3)c12 (stereo not drawn) [Compound 4.214]	2 (≈ 3.96 µM)
CNc1cc(F)cc2c1[nH]c1nc(Oc3cnc(C4CC4)nc3)nc(N3CC4C(N)C4C3)c12 (stereo not drawn) [Compound 4.241]	≤0.5
CNc1cc(F)cc2c1[nH]c1nc(Oc3cnc4[nH]cnc4c3)nc(N3CC4CC(N)C4C3)c12 (stereo not drawn) [Compound 4.310]	>16
COc1cccc2c1[nH]c1nc(Oc3cnc4cccnc4c3)nc(N3CC4C(N)C4C3)c12 (stereo not drawn) [Compound 2.14]	>64
CNc1cc(F)cc2c1[nH]c1nc(Oc3cncnc3)nc(N3C4CCC3CC(N)C4)c12 (stereo not drawn) [Compound 4.025]	2 (≈ 4.6 µM)
CNc1cc(F)cc2c1[nH]c1nc(Oc3cnc(C4CC4)nc3)nc(N3CC4(CCC4N)C3)c12 (stereo not drawn) [Compound 4.244]	≤0.5
CNc1cc(F)cc2c1[nH]c1nc(Oc3cnc(SC)nc3)nc(N3CCC(N)C3)c12 (stereo not drawn) [Compound 4.199]	≤0.5
CNc1cc(F)cc2c1[nH]c1nc(Oc3cnc4cccnc4c3)nc(N3CC4C(N)C4C3)c12 (stereo not drawn) [Compound 4.037]	≤0.5
CNc1cc(F)cc2c1[nH]c1nc(Oc3cncc(F)c3)nc(N3CC4C(N)C4C3)c12 (stereo not drawn) [Compound 4.055]	≤0.5
CNc1cc(F)cc2c1[nH]c1nc(Oc3cncc(-c4cncnc4)c3)nc(N3CC4C(N)C4C3)c12 (stereo not drawn) [Compound 4.205]	≤0.5
CNc1cc(F)cc2c1[nH]c1nc(Oc3cnc(C)nc3)nc(N3CCC(F)(CN)CC3)c12 [Compound 4.159]	≤0.5
CNc1cc(F)cc2c1[nH]c1nc(Oc3cncc(Cl)c3)nc(N3CC(N)C3)c12 [Compound 4.277]	≤0.5
CNc1cc(F)cc2c1[nH]c1nc(Oc3ccc4ncsc4c3)nc(N3CC4CCC(N)C4C3)c12 (stereo not drawn) [Compound 4.320]	1 (≈ 2.04 µM)
CNc1cc(F)cc2c1[nH]c1nc(Oc3ccc4c(c3)C(=O)NC4)nc(N3CC4(CCC4N)C3)c12 (stereo not drawn) [Compound 4.270]	2 (≈ 4.22 µM)
CNc1cc(F)cc2c1[nH]c1nc(Oc3cnc(C)nc3)nc(N3CC4C(CN)C4C3)c12 (stereo not drawn) [Compound 4.106]	2 (≈ 4.6 µM)
CNc1cc(F)cc2c1[nH]c1nc(Oc3cncnc3)nc(N3CCCC(C)(N)C3)c12 (stereo not drawn) [Compound 4.024]	2 (≈ 4.73 µM)
CNc1cc(F)cc2c1[nH]c1nc(Oc3cncnc3)nc(N3CCC4(CCNC4)C3)c12 (stereo not drawn) [Compound 4.033]	4 (≈ 9.21 µM)
CNc1cc(F)cc2c1[nH]c1nc(Oc3cnc(N)nc3)nc(N3CCC(CN)C3)c12 (stereo not drawn) [Compound 4.176]	1 (≈ 2.36 µM)
CNc1cc(F)cc2c1[nH]c1nc(Oc3cncc(-c4nnnn4C)c3)nc(N3CCC(N)C3)c12 (stereo not drawn) [Compound 4.169]	8 (≈ 16.8 µM)
CNc1cc(F)cc2c1[nH]c1nc(Oc3cncnc3)nc(N3CC4C(N)C4C3)c12 (stereo not drawn) [Compound 4.001]	≤0.5
CNc1cc(F)cc2c1[nH]c1nc(Oc3cnc(N(C)C)nc3)nc(N3CC(N)C4(CC4)C3)c12 (stereo not drawn) [Compound 4.209]	≤0.5
CNc1cc(F)cc2c1[nH]c1nc(Oc3cnc(N)nc3)nc(N3CCCC(N)C3)c12 (stereo not drawn) [Compound 4.180]	8 (≈ 18.9 µM)
CNc1cc(F)cc2c1[nH]c1nc(Oc3cncc(-c4nnnn4C)c3)nc(N3CC4C(N)C4C3)c12 (stereo not drawn) [Compound 4.168]	2 (≈ 4.1 µM)
CNc1cc(F)cc2c1[nH]c1nc(Oc3cncnc3)ncc12 [Compound 4.031]	>16
CCc1ncc(Oc2nc(N3CCC4(CC4N)C3)c3c(n2)[nH]c2c(NC)cc(F)cc23)cn1 (stereo not drawn) [Compound 4.263]	≤0.5
